Experimental data reported in ChEMBL document CHEMBL4689842, “EUbOPEN Chemogenomics Library wave 1” (2021).

Columns and labels:
HEK-293T = assay: Incucyte cell viability with HEK293T; assay type: toxicity, cell-based; settings: human, 10 µM, compound concentration 10 uM
Fibroblast = assay: Incucyte cell viability with human fibroblast; assay type: toxicity, cell-based; settings: 10 µM, compound concentration 10 uM
[1] = 0 h, replicate number 2, timepoint 0 hours
[2] = 6 h, replicate number 1, timepoint 6 hours
[3] = 12 h, replicate number 1, timepoint 12 hours
[4] = 18 h, replicate number 1, timepoint 18 hours
[5] = 24 h, replicate number 1, timepoint 24 hours
[6] = 0 h, replicate number 1, timepoint 0 hours
[7] = 6 h, replicate number 2, timepoint 6 hours
[8] = 12 h, replicate number 2, timepoint 12 hours
[9] = 18 h, replicate number 2, timepoint 18 hours
[10] = 24 h, replicate number 2, timepoint 24 hours
Further: filed as whole numbers so only -1 and 0 and 1 occur.

Structure (SMILES)	Growth Rate (HEK-293T; [1])	Growth Rate (HEK-293T; [2])	Growth Rate (HEK-293T; [3])	Growth Rate (HEK-293T; [4])	Growth Rate (HEK-293T; [5])	Growth Rate (Fibroblast; [6])	Growth Rate (Fibroblast; [2])	Growth Rate (Fibroblast; [3])	Growth Rate (Fibroblast; [4])	Growth Rate (Fibroblast; [5])	Growth Rate (HEK-293T; [6])	Growth Rate (HEK-293T; [7])	Growth Rate (HEK-293T; [8])	Growth Rate (HEK-293T; [9])	Growth Rate (Fibroblast; [1])	Growth Rate (Fibroblast; [7])	Growth Rate (Fibroblast; [8])	Growth Rate (Fibroblast; [10])	Growth Rate (HEK-293T; [10])	Growth Rate (Fibroblast; [9])
Cc1cc(C)cc(-c2cnc3cc(Cl)c(-c4cccc(O)c4)cc3c2OCCCN)c1	1	0	0	0	0	0	0	0	0	0										
Cc1sc2c(c1C)C(c1ccc(Cl)cc1)=N[C@@H](CC(=O)OC(C)(C)C)c1nnc(C)n1-2	1			1	0		0	0	0	0	0	0	0	0	0	1				
COc1cc(-n2cnc3cc(-c4ccc(Cl)cc4)sc3c2=O)ccc1OCCN1CCCC1	1	0	0	0	0		0	0	0	0										
Cc1csc2c(N[C@@H](C)CN3CCN(S(=O)(=O)c4ccc(Cl)c(Cl)c4)CC3)ncnc12		0	0	0	0	0		1	0	0	0					0	0			
Cc1[nH]c(/C=C2\C(=O)Nc3ccc(S(=O)(=O)N(C)c4cccc(Cl)c4)cc32)c(C)c1C(=O)N1CCN(C)CC1				0	0	0			1	1	0			1						
CNc1nc(NCc2ccc(NS(C)(=O)=O)cc2Cl)cc(-c2ccccn2)n1	0	0	0	0	0		0	0	0	0	1									
CCn1c(=O)c(-c2ccc(Cl)cc2Cl)cc2cnc(Nc3ccc(N4CCNCC4)c(F)c3)nc21		0	0	0	0	0	0	0	0	0										
CC(C)(O)CNc1ncc(-c2ccnc(Nc3ccnc(Cl)c3)n2)c(CC2CC2)n1	1	0	0	0	0		0	0	0	0					1	1				
Cn1cc(-c2[nH]c3cc(NC(=O)[C@H](N)C4CCCCC4)cc4c3c2C=NNC4=O)cn1		0	0	0	0	0			1	1										
C=CC(=O)Nc1cccc(C(=O)Nc2ccc(Nc3cc(-c4[nH]c(SC)nc4C)ccn3)cc2)c1	1	0	0	0	0	0		0	1	1	0			1		1	1			
OC1(c2ccc(Cl)cc2)CCN(Cc2c[nH]c3ccccc23)CC1		0	0	0	0	0	0	0	0	0	1									
CC(C)C(=O)Nc1n[nH]c2cc(-c3cccc(NS(=O)(=O)C4CC4)c3)ccc12		0	0	0	0	1	0	0	0	0	0									
CN1C(=O)c2sccc2N(C)c2nc(Nc3ccc(S(N)(=O)=O)cc3)ncc21		0	0	0	0	0	1	0	0	0						0	1	1		
CN(C)C(=O)/C(C#N)=C/c1ccc(-c2nc3cnc4[nH]ccc4c3n2C2CCCCC2)o1							1	0	0	0	0				0				1	1
C=CC(=O)Nc1ccc2ncnc(Nc3ccc(OCc4cccc(F)c4)c(Cl)c3)c2c1.Cc1ccc(S(=O)(=O)O)cc1	1			0	0	0	0	0	0	0	0	0	0							
COc1cc2nccc(Oc3ccc(NC(=O)Nc4cc(C)on4)c(Cl)c3)c2cc1OC.O	0	0	0	0	0	0	0	0	0	0						1				
Cn1cncc1[C@@](O)(COc1ccc(C#N)cc1-c1ccc(OC(F)(F)F)cc1)c1ccc(C#N)cc1 [A-108]			1	0	0	1	0	0	0	0	1	0	0							
CN(C)CC#Cc1ccc(OCCCc2sc(N3CCc4cccc(C(=O)Nc5nc6ccccc6s5)c4C3)nc2C(=O)O)c(F)c1 [A-1155463]	1					0	0	0	0	0	0								1	
NC(=O)Nc1cc(-c2cccc(F)c2)sc1C(=O)N[C@H]1CCCNC1 [AZD-7762]	1	0	0	0	0		1	0	0	0	0				0					1
CN1CCCC(n2nc(Cc3ccc(Cl)cc3)c3ccccc3c2=O)CC1.Cl (centres undefined) [AZELASTINE HYDROCHLORIDE]	1	0	0	0	0	0		1	1	0						0	0			0
Cn1c(-c2csc(C3CCN(CC4=NC5N=CC=CC5N4)CC3)n2)nc2ccccc21 (centres undefined) [BAY-070]		0	0	0	0		0	1	1	1					1					
